Ki data for 21 compounds are collected here from patent publication US8044079B2, “Substituted oxindole derivatives, medicaments containing said derivatives and use thereof” (Abbott GmbH & Co. KG, priority 2005, dated 2011).

The experiment deals with T1, human vasopressin V1b receptor (Homo sapiens, UniProt P47901).
T1 construct: expressed in transfected cells; host or cells: CHO-K1 (cell line hV1b_3H2_CHO), membrane preparation
T1 sequence (P47901 1-424): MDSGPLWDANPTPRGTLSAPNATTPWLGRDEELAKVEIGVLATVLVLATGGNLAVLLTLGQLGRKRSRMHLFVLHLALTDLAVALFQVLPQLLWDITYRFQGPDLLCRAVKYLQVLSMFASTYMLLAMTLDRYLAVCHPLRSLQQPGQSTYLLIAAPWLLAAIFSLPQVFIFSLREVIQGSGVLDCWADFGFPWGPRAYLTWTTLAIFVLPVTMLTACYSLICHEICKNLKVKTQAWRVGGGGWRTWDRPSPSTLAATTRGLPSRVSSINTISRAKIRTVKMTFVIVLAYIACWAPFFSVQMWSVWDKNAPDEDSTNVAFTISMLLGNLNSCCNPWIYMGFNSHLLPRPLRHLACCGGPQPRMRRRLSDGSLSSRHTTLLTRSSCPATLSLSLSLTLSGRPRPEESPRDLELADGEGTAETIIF
Briefly: Vasopressin V1b receptor binding test. Conditions: membranes of CHO-K1 cells with human V1b receptor, displacement of 1.5 nM 3H-AVP; for compounds with more than one stereogenic center the diastereomer with greater affinity. How it is done:
Vasopressin V1b Receptor Binding Test:
The test substances were dissolved at a concentration of 10^−2 M in DMSO, and were further diluted to 5×10^−4 M to 5×10^−9 M in DMSO. This DMSO predilution series was diluted 1:10 with test buffer. In the test assay the substance concentration was further diluted to 1:5 (2% DMSO in the assay).
The membrane pellet was homogenized again as described and centrifuged, and was then taken up in 50 mM tris-HCl at pH 7.4, homogenized, and frozen in aliquots at −190° C. and stored in liquid nitrogen.
The incubation buffer was 50 mM tris, 10 mM MgCl2, and 0.1% BSA at pH 7.4. […] The nonspecific binding was determined using 1 μM AVP (Bachem #H1780). All determinations were performed in triplicate. After incubation (60 minutes at room temperature), the free radioligand was filtered off by vacuum filtration (Skatron 7000 cell harvester) through Wathman GF/B fiberglass filter mats, and the filters were transferred to scintillation vessels. The liquid scintillation measurement was conducted in a Model 2000 or 2200CA TriCarb unit (Packard). The measured cpm was converted to dpm using a standard quench series.
The binding parameters were calculated by nonlinear regression in SAS.
The affinities of the compounds according to the invention for human vasopressin receptor V1b were measured according to the above test, and the affinity constants (Ki) were determined.

In turn, `CCNCc1ccc(OC)c(C2(N3CCC[C@H]3c3ncco3)C(=O)N(S(=O)(=O)c3ccc(OC)cc3)c3ccc(C#N)cc32)c1` (stereo partly drawn) [Example 47, 5-Cyano-3-(5-ethylaminomethyl-2-methoxyphenyl)-1-(4-methoxybenzenesulfonyl)-3-((S)-2-oxazol-2-yl-pyrrolidin-1-yl)-1,3-dihydroindol-2-one] registered an inhibitory constant (Ki) of less than 0.01 µM.
`CCN(C)Cc1ccc(OC)c(C2(N3CCC[C@H]3c3ncco3)C(=O)N(S(=O)(=O)c3ccc(OC)cc3)c3ccc(C#N)cc32)c1` (stereo partly drawn) [Example 48, 5-Cyano-3-{5-[(ethylmethylamino)methyl]-2-methoxyphenyl}-1-(4-methoxybenzenesulfonyl)-3-((S)-2-oxazol-2-yl-pyrrolidin-1-yl)-1,3-dihydroindol-2-one] returned an inhibition constant (Ki) of 0.01 to 0.1 µM.
To `CCN(CC)Cc1ccc(OC)c(C2(N3CCC[C@H]3c3ncco3)C(=O)N(S(=O)(=O)c3ccc(OC)cc3)c3ccc(C#N)cc32)c1` (stereo partly drawn) [Example 49, 5-Cyano-3-(5-diethylaminomethyl-2-methoxyphenyl)-1-(4-methoxybenzenesulfonyl)-3-((S)-2-oxazol-2-yl-pyrrolidin-1-yl)-1,3-dihydroindol-2-one] belongs 0.01 to 0.1 µM; to `CCCNCc1ccc(OC)c(C2(N3CCC[C@H]3c3ncco3)C(=O)N(S(=O)(=O)c3ccc(OC)cc3)c3ccc(C#N)cc32)c1` (stereo partly drawn) [Example 50, 5-Cyano-1-(4-methoxybenzenesulfonyl)-3-(2-methoxy-5-propylaminomethylphenyl)-3-((S)-2-oxazol-2-yl-pyrrolidin-1-yl)-1,3-dihydroindol-2-one], less than 0.01 µM.
`COc1ccc(S(=O)(=O)N2C(=O)C(c3cc(CNC(C)C)ccc3OC)(N3CCC[C@H]3c3ncco3)c3cc(C#N)ccc32)cc1` (stereo partly drawn) [Example 52, 5-Cyano-3-[5-(isopropylaminomethyl)-2-methoxyphenyl]-1-(4-methoxybenzenesulfonyl)-3-((S)-2-oxazol-2-yl-pyrrolidin-1-yl)-1,3-dihydroindol-2-one] displayed a Ki of 0.01 to 0.1 µM.
The compound `COc1ccc(S(=O)(=O)N2C(=O)C(c3cc(CN(C)C(C)C)ccc3OC)(N3CCC[C@H]3c3ncco3)c3cc(C#N)ccc32)cc1` (stereo partly drawn) [Example 53, 5-Cyano-3-{5-[(isopropylmethylamino)methyl]-2-methoxyphenyl}-1-(4-methoxybenzenesulfonyl)-3-((S)-2-oxazol-2-yl-pyrrolidin-1-yl)-1,3-dihydroindol-2-one] came in with a Ki of 0.01 to 0.1 µM.
The compound `COc1ccc(S(=O)(=O)N2C(=O)C(c3cc(CNCCO)ccc3OC)(N3CCC[C@H]3c3ncco3)c3cc(C#N)ccc32)cc1` (stereo partly drawn) [Example 54, 5-Cyano-3-{5-[(2-hydroxyethylamino)methyl]-2-methoxyphenyl}-1-(4-methoxybenzenesulfonyl)-3-((S)-2-oxazol-2-yl-pyrrolidin-1-yl)-1,3-dihydroindol-2-one] had a Ki of 0.01 to 0.1 µM.
To `COCCN(C)Cc1ccc(OC)c(C2(N3CCC[C@H]3c3ncco3)C(=O)N(S(=O)(=O)c3ccc(OC)cc3)c3ccc(C#N)cc32)c1` (stereo partly drawn) [Example 55, 5-Cyano-1-(4-methoxybenzenesulfonyl)-3-(2-methoxy-5-{[(2-methoxyethyl)methylamino]methyl}phenyl)-3-((S)-2-oxazol-2-yl-pyrrolidin-1-yl)-1,3-dihydroindol-2-one] belongs 0.01 to 0.1 µM; to `COc1ccc(S(=O)(=O)N2C(=O)C(c3cc(CN4CCN(C)CC4)ccc3OC)(N3CCC[C@H]3c3ncco3)c3cc(C#N)ccc32)cc1` (stereo partly drawn) [Example 56, 5-Cyano-1-(4-methoxybenzenesulfonyl)-3-[2-methoxy-5-(4-methylpiperazin-1-ylmethyl)phenyl]-3-((S)-2-oxazol-2-yl-pyrrolidin-1-yl)-1,3-dihydroindol-2-one], less than 0.01 µM; to `COc1ccc(S(=O)(=O)N2C(=O)C(c3cc(CN4CCNCC4)ccc3OC)(N3CCC[C@H]3c3ncco3)c3cc(C#N)ccc32)cc1` (stereo partly drawn) [Example 57, 5-Cyano-1-(4-methoxybenzenesulfonyl)-3-(2-methoxy-5-piperazin-1-ylmethylphenyl)-3-((S)-2-oxazol-2-yl-pyrrolidin-1-yl)-1,3-dihydroindol-2-one], less than 0.01 µM.
On to `COc1ccc(S(=O)(=O)N2C(=O)C(c3cc(CN4CCOCC4)ccc3OC)(N3CCC[C@H]3c3ncco3)c3cc(C#N)ccc32)cc1` (stereo partly drawn) [Example 58, 5-Cyano-1-(4-methoxybenzenesulfonyl)-3-(2-methoxy-5-morpholin-4-ylmethylphenyl)-3-((S)-2-oxazol-2-yl-pyrrolidin-1-yl)-1,3-dihydroindol-2-one], for which the Ki was in the range of 0.01 to 0.1 µM.
To `COc1ccc(S(=O)(=O)N2C(=O)C(c3cc(CN4CCCC4)ccc3OC)(N3CCC[C@H]3c3ncco3)c3cc(C#N)ccc32)cc1` (stereo partly drawn) [Example 60, 5-Cyano-1-(4-methoxybenzenesulfonyl)-3-(2-methoxy-5-pyrrolidin-1-ylmethylphenyl)-3-((S)-2-oxazol-2-yl-pyrrolidin-1-yl)-1,3-dihydroindol-2-one] belongs 0.01 to 0.1 µM; to `COc1ccc(S(=O)(=O)N2C(=O)C(c3cc(CN4CCCCC4)ccc3OC)(N3CCC[C@H]3c3ncco3)c3cc(C#N)ccc32)cc1` (stereo partly drawn) [Example 61, 5-Cyano-1-(4-methoxybenzenesulfonyl)-3-(2-methoxy-5-piperidin-1-ylmethylphenyl)-3-((S)-2-oxazol-2-yl-pyrrolidin-1-yl)-1,3-dihydroindol-2-one], 0.01 to 0.1 µM.
The result for `CNCc1ccc(OC)c(C2(N3CCC[C@H]3c3ncco3)C(=O)N(S(=O)(=O)c3ccc(OC)cc3)c3cc(Cl)c(Cl)cc32)c1` (stereo partly drawn) [Example 63, 5,6-Dichloro-1-(4-methoxybenzenesulfonyl)-3-(2-methoxy-5-methylaminomethylphenyl)-3-((S)-2-oxazol-2-yl-pyrrolidin-1-yl)-1,3-dihydroindol-2-one] reads 0.01 to 0.1 µM.
The result for `COc1ccc(S(=O)(=O)N2C(=O)C(c3cc(CN(C)C)ccc3OC)(N3CCC[C@H]3c3ncco3)c3cc(Cl)c(Cl)cc32)cc1` (stereo partly drawn) [Example 64, 5,6-Dichloro-3-(5-dimethylaminomethyl-2-methoxyphenyl)-1-(4-methoxybenzenesulfonyl)-3-((S)-2-oxazol-2-yl-pyrrolidin-1-yl)-1,3-dihydroindol-2-one] reads 0.01 to 0.1 µM; that for `CCNCc1ccc(OC)c(C2(N3CCC[C@H]3c3ncco3)C(=O)N(S(=O)(=O)c3ccc(OC)cc3)c3cc(Cl)c(Cl)cc32)c1` (stereo partly drawn) [Example 65, 5,6-Dichloro-3-(5-ethylaminomethyl-2-methoxyphenyl)-1-(4-methoxybenzenesulfonyl)-3-((S)-2-oxazol-2-yl-pyrrolidin-1-yl)-1,3-dihydroindol-2-one], 0.01 to 0.1 µM; that for `CCCNCc1ccc(OC)c(C2(N3CCC[C@H]3c3ncco3)C(=O)N(S(=O)(=O)c3ccc(OC)cc3)c3cc(Cl)c(Cl)cc32)c1` (stereo partly drawn) [Example 68, 5,6-Dichloro-1-(4-methoxybenzenesulfonyl)-3-(2-methoxy-5-propylaminomethylphenyl)-3-((S)-2-oxazol-2-yl-pyrrolidin-1-yl)-1,3-dihydroindol-2-one], 0.01 to 0.1 µM.
In turn, `COc1ccc(S(=O)(=O)N2C(=O)C(c3cc(CNC(C)C)ccc3OC)(N3CCC[C@H]3c3ncco3)c3cc(Cl)c(Cl)cc32)cc1` (stereo partly drawn) [Example 70, 5,6-Dichloro-3-[5-(isopropylaminomethyl)-2-methoxyphenyl]-1-(4-methoxybenzenesulfonyl)-3-((S)-2-oxazol-2-yl-pyrrolidin-1-yl)-1,3-dihydroindol-2-one] displayed a Ki of 0.01 to 0.1 µM.
As for `COc1ccc(S(=O)(=O)N2C(=O)C(c3cc(CN4CCN(C)CC4)ccc3OC)(N3CCC[C@H]3c3ncco3)c3cc(Cl)c(Cl)cc32)cc1` (stereo partly drawn) [Example 74, 5,6-Dichloro-1-(4-methoxybenzenesulfonyl)-3-[2-methoxy-5-(4-methylpiperazin-1-ylmethyl)phenyl]-3-((S)-2-oxazol-2-yl-pyrrolidin-1-yl)-1,3-dihydroindol-2-one], the Ki lay in the range of 0.01 to 0.1 µM.
`COc1ccc(S(=O)(=O)N2C(=O)C(c3cc(CN4CCNCC4)ccc3OC)(N3CCC[C@H]3c3ncco3)c3cc(Cl)c(Cl)cc32)cc1` (stereo partly drawn) [Example 75, 5,6-Dichloro-1-(4-methoxybenzenesulfonyl)-3-(2-methoxy-5-piperazin-1-ylmethylphenyl)-3-((S)-2-oxazol-2-yl-pyrrolidin-1-yl)-1,3-dihydroindol-2-one] yielded a Ki of 0.01 to 0.1 µM.
`COc1ccc(S(=O)(=O)N2C(=O)C(c3cc(CN4CCCC4)ccc3OC)(N3CCC[C@H]3c3ncco3)c3cc(Cl)c(Cl)cc32)cc1` (stereo partly drawn) [Example 78, 5,6-Dichloro-1-(4-methoxybenzenesulfonyl)-3-(2-methoxy-5-pyrrolidin-1-ylmethylphenyl)-3-((S)-2-oxazol-2-yl-pyrrolidin-1-yl)-1,3-dihydroindol-2-one] yielded a Ki of 0.01 to 0.1 µM.

Usually Ki stands for a dissociation constant, usually derived from enzyme kinetics or from competition with a known ligand. A high value points to a looser hold on the target.
